Measurements published in PubChem BioAssay AID256 (DTP/NCI, 2004).
Where “and” joins values, the source holds several entries; their conditions need not be identical. Identical values can stand only once. Inconclusive results and toxic doses are left out. The calls were made as follows: active = survival T/C of 150% or more; inactive = T/C below 125% in these data.

Test system: CD2F1 mice, L1210 leukemia ip, survival T/C
Experiment: NCI In Vivo Anticancer Drug Screen. Data for tumor model L1210 Leukemia (intraperitoneal) in CD2F1 (CDF1) mice
Conditions: higher = longer survival
Method in brief: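 Transplantable tumor in mice; compound-treated vs vehicle-treated groups. Read-out = treated/control ratio of the measured endpoint.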

[1] = endpoint: mean survival time, dose: 75.0 mg/kg/injection, schedule: Q01DX001 (ip), vehicle: saline
[2] = endpoint: mean survival time, dose: 150.0 mg/kg/injection, schedule: Q01DX001 (ip), vehicle: saline
[3] = endpoint: mean survival time, dose: 100.0 mg/kg/injection, schedule: Q01DX001 (ip), vehicle: saline with Tween-80
[4] = endpoint: mean survival time, dose: 200.0 mg/kg/injection, schedule: Q01DX001 (ip), vehicle: saline with Tween-80
[5] = endpoint: mean survival time, dose: 400.0 mg/kg/injection, schedule: Q01DX001 (ip), vehicle: saline with Tween-80
[6] = endpoint: mean survival time, dose: 100.0 mg/kg/injection, schedule: Q01DX009 (ip), vehicle: saline
[7] = endpoint: mean survival time, dose: 200.0 mg/kg/injection, schedule: Q01DX009 (ip), vehicle: saline
[8] = endpoint: mean survival time, dose: 400.0 mg/kg/injection, schedule: Q01DX009 (ip), vehicle: saline
[9] = endpoint: mean survival time, dose: 100.0 mg/kg/injection, schedule: Q01DX009 (ip), vehicle: saline with Tween-80
[10] = endpoint: mean survival time, dose: 100.0 mg/kg/injection, schedule: Q04DX003 (ip), vehicle: saline with Tween-80
[11] = endpoint: mean survival time, dose: 200.0 mg/kg/injection, schedule: Q04DX003 (ip), vehicle: saline with Tween-80
[12] = endpoint: mean survival time, dose: 400.0 mg/kg/injection, schedule: Q04DX003 (ip), vehicle: saline with Tween-80
[13] = endpoint: mean survival time, dose: 200.0 mg/kg/injection, schedule: Q01DX009 (ip), vehicle: saline with Tween-80
[14] = endpoint: mean survival time, dose: 400.0 mg/kg/injection, schedule: Q01DX009 (ip), vehicle: saline with Tween-80

Measured: T/C

C[C@@H]1C[C@@H]([C@H](O)CC2CC(=O)NC(=O)C2)C(=O)[C@@H](C)C1
inactive: endpoint: mean survival time, dose: 5.0 mg/kg/injection, schedule: Q01DX009 (ip), vehicle: saline 104 % of control and 109 % of control | endpoint: mean survival time, dose: 10.0 mg/kg/injection, schedule: Q01DX007 (ip), vehicle: saline 107 % of control | endpoint: mean survival time, dose: 10.0 mg/kg/injection, schedule: Q03DX003 (ip), vehicle: saline 96 % of control | endpoint: mean survival time, dose: 10.0 mg/kg/injection, schedule: Q04DX003 (ip), vehicle: saline 100 % of control | endpoint: mean survival time, dose: 20.0 mg/kg/injection, schedule: Q01DX007 (ip), vehicle: saline 107 % of control | endpoint: mean survival time, dose: 20.0 mg/kg/injection, schedule: Q03DX003 (ip), vehicle: saline 100 % of control | endpoint: mean survival time, dose: 20.0 mg/kg/injection, schedule: Q04DX003 (ip), vehicle: saline 100 % of control | endpoint: mean survival time, dose: 40.0 mg/kg/injection, schedule: Q01DX007 (ip), vehicle: saline 115 % of control | endpoint: mean survival time, dose: 40.0 mg/kg/injection, schedule: Q03DX003 (ip), vehicle: saline 104 % of control | endpoint: mean survival time, dose: 40.0 mg/kg/injection, schedule: Q04DX003 (ip), vehicle: saline 106 % of control | endpoint: mean survival time, dose: 80.0 mg/kg/injection, schedule: Q01DX009 (ip), vehicle: saline 120 % of control | endpoint: mean survival time, dose: 160.0 mg/kg/injection, schedule: Q01DX009 (ip), vehicle: saline 89 % of control | endpoint: median survival time, dose: 12.5 mg/kg/injection, schedule: Q01DX009 (ip), vehicle: saline 109 % of control | endpoint: median survival time, dose: 25.0 mg/kg/injection, schedule: Q01DX009 (ip), vehicle: saline 114 % of control and 119 % of control | endpoint: median survival time, dose: 200.0 mg/kg/injection, schedule: Q01DX009 (ip), vehicle: saline 101 % of control

CC1(C)N=C(N)N=C(N)N1c1cccc(C#N)c1
inactive: endpoint: mean survival time, dose: 17.0 mg/kg/injection, schedule: Q01DX009 (ip), vehicle: saline 112 % of control | endpoint: mean survival time, dose: 25.0 mg/kg/injection, schedule: Q01DX009 (ip), vehicle: saline 117 % of control | endpoint: mean survival time, dose: 37.5 mg/kg/injection, schedule: Q01DX009 (ip), vehicle: saline 120 % of control | [1] 104 % of control | [2] 113 % of control

NNC(=O)CCCCCC/C=C/CCCCCCCO
inactive: endpoint: mean survival time, dose: 50.0 mg/kg/injection, schedule: Q01DX001 (ip), vehicle: saline with Tween-80 98 % of control | [3] 108 % of control | [4] 101 % of control

CCOC(=O)c1sc(C(=O)OCC)c(-c2ccccc2)c1-c1ccccc1
inactive: [3] 108 % of control | [4] 93 % of control | [5] 96 % of control

c1cncc(C2OCCO2)c1
inactive: [6] 105 % of control | [7] 100 % of control | [8] 100 % of control

CC(C)(C)OC(=O)NC(CCC(=O)OCc1ccccc1)C(=O)O (configuration not stated) (tested in a mixture with another compound)
inactive: endpoint: mean survival time, dose: 25.0 mg/kg/injection, schedule: Q01DX009 (ip), vehicle: saline with Tween-80 91 % of control | [9] 96 % of control and 98 % of control

Brc1cscc1-c1ccccc1
inactive: [10] 93 % of control | [11] 102 % of control | [12] 98 % of control

C=CCOc1cccc(OCC=C)c1C
inactive: [6] 102 % of control | [7] 100 % of control | [8] 100 % of control

CC(C)C(=O)OC1(C(C)c2ccccc2)C(=O)NC(=O)NC1=O (configuration not stated)
inactive: endpoint: mean survival time, dose: 6.25 mg/kg/injection, schedule: Q01DX009 (ip), vehicle: saline with Tween-80 92 % of control | endpoint: mean survival time, dose: 12.5 mg/kg/injection, schedule: Q01DX009 (ip), vehicle: saline with Tween-80 97 % of control | endpoint: mean survival time, dose: 25.0 mg/kg/injection, schedule: Q04DX002 (ip), vehicle: saline with Tween-80 91 % of control

Nc1ccccc1N=Cc1cccc([N+](=O)[O-])c1
inactive: [9] 94 % of control | [10] 101 % of control | [13] 96 % of control | [11] 98 % of control | [14] 100 % of control | [12] 101 % of control

C1CN(P2(N3CC3)=NP(N3CC3)(N3CC3)=NP(N3CC3)(N3CC3)=N2)CCO1 (configuration not stated)
inactive: endpoint: mean survival time, dose: 6.25 mg/kg/injection, schedule: Q01DX009 (ip), vehicle: saline 120 % of control and 123 % of control and 109 % of control | endpoint: mean survival time, dose: 25.0 mg/kg/injection, schedule: Q01DX001 (ip), vehicle: saline 121 % of control | endpoint: mean survival time, dose: 50.0 mg/kg/injection, schedule: Q01DX001 (ip), vehicle: saline 119 % of control | [6] 98 % of control

O=C(NCCCCC(NC(=O)OCc1ccccc1)C(=O)ON1C(=O)CCC1=O)OCc1ccccc1 (configuration not stated)
inactive: endpoint: mean survival time, dose: 12.5 mg/kg/injection, schedule: Q01DX009 (ip), vehicle: other 96 % of control | endpoint: mean survival time, dose: 25.0 mg/kg/injection, schedule: Q01DX009 (ip), vehicle: other 86 % of control | endpoint: mean survival time, dose: 50.0 mg/kg/injection, schedule: Q01DX009 (ip), vehicle: other 90 % of control | endpoint: mean survival time, dose: 100.0 mg/kg/injection, schedule: Q01DX009 (ip), vehicle: other 94 % of control | endpoint: mean survival time, dose: 200.0 mg/kg/injection, schedule: Q01DX009 (ip), vehicle: other 97 % of control

[N-]=[N+]=NCCCCCCCCCCN=[N+]=[N-]
inactive: [1] 98 % of control | [2] 101 % of control | endpoint: mean survival time, dose: 300.0 mg/kg/injection, schedule: Q01DX001 (ip), vehicle: saline 98 % of control

CCOC(N)=O
inactive: endpoint: mean survival time, dose: 125.0 mg/kg/injection, schedule: Q01DX009 (ip), vehicle: saline 98 % of control and 101 % of control | endpoint: mean survival time, dose: 250.0 mg/kg/injection, schedule: Q01DX009 (ip), vehicle: saline 104 % of control and 109 % of control | endpoint: mean survival time, dose: 500.0 mg/kg/injection, schedule: Q01DX009 (ip), vehicle: saline 116 % of control and 101 % of control | endpoint: mean survival time, dose: 1000.0 mg/kg/injection, schedule: Q01DX009 (ip), vehicle: saline 89 % of control and 105 % of control

CC(=O)/C=C(\C)OC1CCCCC1
inactive: [6] 98 % of control | [7] 93 % of control

N#CCc1ccc2c(c1)Sc1ccccc1O2
inactive: endpoint: mean survival time, dose: 100.0 mg/kg/injection, schedule: Q04DX003 (ip), vehicle: Klucel (hydroxypropylcellulose) (HPC) 108 % of control | endpoint: mean survival time, dose: 200.0 mg/kg/injection, schedule: Q04DX003 (ip), vehicle: Klucel (hydroxypropylcellulose) (HPC) 98 % of control | endpoint: mean survival time, dose: 400.0 mg/kg/injection, schedule: Q04DX003 (ip), vehicle: Klucel (hydroxypropylcellulose) (HPC) 100 % of control

Cc1cc(Br)c2nsnc2c1[N+](=O)[O-]
inactive: endpoint: median survival time, dose: 25.0 mg/kg/injection, schedule: Q01DX009 (ip), vehicle: saline with Tween-80 97 % of control | endpoint: median survival time, dose: 50.0 mg/kg/injection, schedule: Q01DX009 (ip), vehicle: saline with Tween-80 100 % of control | endpoint: median survival time, dose: 100.0 mg/kg/injection, schedule: Q01DX009 (ip), vehicle: saline with Tween-80 101 % of control | endpoint: median survival time, dose: 200.0 mg/kg/injection, schedule: Q01DX009 (ip), vehicle: saline with Tween-80 100 % of control | endpoint: median survival time, dose: 400.0 mg/kg/injection, schedule: Q01DX009 (ip), vehicle: saline with Tween-80 101 % of control

ClC1=C(Cl)C2(Cl)C3C4CCC(C4)C3C1(Cl)C2(Cl)Cl (configuration not stated)
inactive: [9] 95 % of control and 107 % of control | [13] 93 % of control and 111 % of control | [14] 96 % of control and 105 % of control

CCc1c2cc(OC)c(OC)cc2cc2c3cc(OC)c(OC)cc3cc[n+]12 (tested in a mixture with another compound)
inactive: endpoint: mean survival time, dose: 14.6 mg/kg/injection, schedule: Q01DX009 (ip), vehicle: saline with Tween-80 120 % of control | endpoint: mean survival time, dose: 33.0 mg/kg/injection, schedule: Q01DX009 (ip), vehicle: saline with Tween-80 117 % of control | endpoint: mean survival time, dose: 50.0 mg/kg/injection, schedule: Q01DX009 (ip), vehicle: saline 122 % of control | endpoint: mean survival time, dose: 50.0 mg/kg/injection, schedule: Q04DX003 (ip), vehicle: saline 122 % of control | [6] 104 % of control | endpoint: mean survival time, dose: 100.0 mg/kg/injection, schedule: Q04DX003 (ip), vehicle: saline 121 % of control and 123 % of control | endpoint: mean survival time, dose: 200.0 mg/kg/injection, schedule: Q04DX003 (ip), vehicle: saline 101 % of control | endpoint: mean survival time, dose: 400.0 mg/kg/injection, schedule: Q04DX003 (ip), vehicle: saline 121 % of control and 98 % of control

CCOC(=O)CC1OCCO1
inactive: [10] 98 % of control | [11] 103 % of control | [12] 101 % of control

COc1c(Cl)c(=O)oc2cc(C)c(Cl)c(C)c12
inactive: [3] 93 % of control | [4] 96 % of control | [5] 96 % of control

O=C(/C(Br)=C/c1ccccc1[N+](=O)[O-])c1ccccc1
inactive: [3] 98 % of control | [4] 95 % of control | [5] 98 % of control
